# How the values were obtained:
# spleen and lung cells [1] = test: Type and number of memory T cells in spleen and lung (flow cytometry); format: in vivo, mouse; conditions: both spleen and lung cells of immunized mice; compared with MPL as adjuvant; FIG. 1D
# Description: In general, when infected with Mycobacterium tuberculosis, Mycobacterium tuberculosis antigen-specific T cells replicate and differentiate to become effector T cells. When the immune response disappears, most of these effector T cells die, and some form long-lasting memory T cells. It is known that the memory T cells thus formed play a critical role in the formation of a rapid acquired defense immunity and maintenance of the memorization of T cells. […] For the experiment, the spleen and lung cells of the mouse obtained in the same manner as in Example 1.2 were washed twice with PBS and then centrifuged. The centrifuged cells were treated with anti-CD3-BV421 (BD Bioscience), anti-CD4-PerCP-Cy5.5 (BD Bioscience), anti-CD8-APC-Cy7 (BD Bioscience), anti-CD44-PE (Ebioscience), anti-CD62L-FITC (Ebioscience), anti-CD127-APC (Ebioscience), etc. Then, they were reacted at 4° C. for 30 minutes. After the reaction was completed, cells were washed several times with PBS to remove unbound antibody, and then effector T cells (Teff; CD3^+CD4^+CD62L^−CD44+CD127^−), effector/memory T cells (Tem; CD3^+CD4^+CD62L^−CD44^+CD127^+), central memory T cells (Tcm; CD3^+CD4^+CD62L^+CD44^+CD127^+), and naive T cells (Naive; CD3^+CD4^+CD62L^+CD44^−CD127^+) were analyzed by using flow cytometer (FACS verse, BD).
# spleen and lung cells [2] = test: Antigen-specific multifunctional T cells after ESAT-6 stimulation (flow cytometry); conditions: mouse, in vivo
Compound,effector/memory T of CD4+/CD8+ (spleen and lung cells [1]),"T cells secreting all three types of cytokines IFN-γ, TNF-α and IL-2 (spleen and lung cells [2])"
"Nc1nc2c(ncn2[C@@H]2O[C@@H]3COP(=O)(O)O[C@H]4[C@@H](O)[C@H](n5cnc6c(=O)[nH]c(N)nc65)O[C@@H]4COP(=O)(O)O[C@H]3[C@H]2O)c(=O)[nH]1 [c-di-GMP, cyclic diguanylate]",significant increase,increased
monophosphoryl lipid A [MPL],–,increased

# Source: patent US20220031825A1, “IMM[…] AND VACCINE COMPOSITION INCLUDING STING AGONIST” (priority 2018, published 2022)
